Legend:
Type in all cases: in vivo
[1] = system: Alopecurus myosuroides (ALOMY); assay: Pre-emergence herbicidal activity, glasshouse pot test; set-up: key: 5=total damage to plant; 0=no damage to plant; conditions: Rate 1000 g/Ha; sprayed one day after sowing; evaluated after 13 days; scale 0-5
Method: (§1) Seeds of a variety of test species were sown in standard soil in pots. After cultivation for one day (pre-emergence) under controlled conditions in a glasshouse (at 24/16° C., day/night; 14 hours light; 65% humidity), the plants were sprayed with an aqueous spray solution derived from the formulation of the technical active ingredient in acetone/water (50:50) solution containing 0.5% Tween 20 (polyoxyethelyene sorbitan monolaurate, CAS RN 9005-64-5). The test plants were then grown in a glasshouse under controlled conditions (at 24/16° C., day/night; 14 hours light; 65% humidity) and watered twice daily. After 13 days, the test was evaluated (5=total damage to plant; 0=no damage to plant).

[2] = system: Abutilon theophrasti (ABUTH); assay: as above; set-up: key: 5=total damage to plant; 0=no damage to plant; conditions: Rate 1000 g/Ha; sprayed one day after sowing; evaluated after 13 days; scale 0-5
Method: as §1

[3] = system: Echinochloa crus-galli (ECHCG); assay: as above; set-up: key: 5=total damage to plant; 0=no damage to plant; conditions: Rate 1000 g/Ha; sprayed one day after sowing; evaluated after 13 days; scale 0-5
Method: as §1

Setaria faberi (SETFA) [4] = assay: as above; set-up: key: 5=total damage to plant; 0=no damage to plant; conditions: Rate 1000 g/Ha; sprayed one day after sowing; evaluated after 13 days; scale 0-5
Method: as §1

[5] = system: Amaranthus retroflexus (AMARE); assay: as above; set-up: key: 5=total damage to plant; 0=no damage to plant; conditions: Rate 1000 g/Ha; sprayed one day after sowing; evaluated after 13 days; scale 0-5
Method: as §1

[6] = system: Alopecurus myosuroides (ALOMY); assay: Post-emergence herbicidal activity, glasshouse pot test; set-up: key: 5=total damage to plant; 0=no damage to plant; conditions: Rate 1000 g/Ha; sprayed after 8 days cultivation; evaluated after 13 days; scale 0-5
Method: (§2) Seeds of a variety of test species were sown in standard soil in pots. After 8 days cultivation (post-emergence) under controlled conditions in a glasshouse (at 24/16° C., day/night; 14 hours light; 65% humidity), the plants were sprayed with an aqueous spray solution derived from the formulation of the technical active ingredient in acetone/water (50:50) solution containing 0.5% Tween 20 (polyoxyethelyene sorbitan monolaurate, CAS RN 9005-64-5). The test plants were then grown in a glasshouse under controlled conditions (at 24/16° C., day/night; 14 hours light; 65% humidity) and watered twice daily. After 13 days, the test was evaluated (5=total damage to plant; 0=no damage to plant).

[7] = system: Abutilon theophrasti (ABUTH); assay: as above; set-up: key: 5=total damage to plant; 0=no damage to plant; conditions: Rate 1000 g/Ha; sprayed after 8 days cultivation; evaluated after 13 days; scale 0-5
Method: as §2

[8] = system: Echinochloa crus-galli (ECHCG); assay: as above; set-up: key: 5=total damage to plant; 0=no damage to plant; conditions: Rate 1000 g/Ha; sprayed after 8 days cultivation; evaluated after 13 days; scale 0-5
Method: as §2

Setaria faberi (SETFA) [9] = assay: as above; set-up: key: 5=total damage to plant; 0=no damage to plant; conditions: Rate 1000 g/Ha; sprayed after 8 days cultivation; evaluated after 13 days; scale 0-5
Method: as §2

Zea mays (ZEAMX) [10] = assay: as above; set-up: key: 5=total damage to plant; 0=no damage to plant; conditions: Rate 1000 g/Ha; sprayed after 8 days cultivation; evaluated after 13 days; scale 0-5
Method: as §2

[11] = system: Amaranthus retroflexus (AMARE); assay: as above; set-up: key: 5=total damage to plant; 0=no damage to plant; conditions: Rate 1000 g/Ha; sprayed after 8 days cultivation; evaluated after 13 days; scale 0-5
Method: as §2

Zea mays (ZEAMX) [12] = assay: Pre-emergence herbicidal activity, glasshouse pot test; conditions: Rate 1000 g/Ha; sprayed one day after sowing; evaluated after 13 days; scale 0-5
Method: as §1

| Structure (SMILES) | ALOMY damage score, application pre-emergence [1] | ABUTH damage score, application pre-emergence [2] | ECHCG damage score, application pre-emergence [3] | SETFA damage score, application pre-emergence (Setaria faberi (SETFA) [4]) | AMARE damage score, application pre-emergence [5] | ALOMY damage score, application post-emergence [6] | ABUTH damage score, application post-emergence [7] | ECHCG damage score, application post-emergence [8] | SETFA damage score, application post-emergence (Setaria faberi (SETFA) [9]) | ZEAMX damage score, application post-emergence (Zea mays (ZEAMX) [10]) | AMARE damage score, application post-emergence [11] | ZEAMX damage score, application pre-emergence (Zea mays (ZEAMX) [12]) |
| --- | --- | --- | --- | --- | --- | --- | --- | --- | --- | --- | --- | --- |
| CON1C(=O)N(c2cc(C(C)(C)F)on2)C(O)C1C (stereo not shown) [Compound A1, 1-[5-(1-fluoro-1-methyl-ethyl)isoxazol-3-yl]-5-hydroxy-3-methoxy-4-methyl-imidazolidin-2-one] | 4 | 5 | 4 | 4 | 5 | 5 | 5 | 5 | 5 | 5 | 5 | 2 |
| CCOC1C(O)N(c2cc(C(C)(C)F)no2)C(=O)N1C (stereo not shown) [Compound A19] | – | 4 | 5 | 4 | 5 | – | 5 | 5 | 5 | 4 | 5 | 2 |
| C[C@@H]1C(O)N(c2cc(C(C)(C)F)no2)C(=O)N1C (stereo partly shown) [Compound A20] | – | 5 | 5 | 4 | 5 | – | 5 | 5 | 5 | 4 | 5 | 3 |
| CC(C)(C)c1cc(N2C(=O)N3COCC3C2O)no1 (stereo not shown) [Compound A21] | – | 5 | 5 | 5 | 5 | – | 5 | 5 | 5 | 4 | 5 | 3 |
| CC(C)(C)c1cc(N2C(=O)N3CCCC3C2O)no1 (stereo not shown) [Compound A25] | – | 5 | 5 | 4 | 5 | – | 5 | 5 | 5 | 5 | 5 | 4 |
